Experiments:
iPLA2β [1] = target: T1, iPLA2β (Cricetulus griseus, UniProt A0A3L7I2I8); assay: Real-time fluorescence BODIPY-PC assay of iPLA2β phospholipase A2 activity; type: biochemical
T1 construct: (His)6; made in house; host or cells: Sf9 insect cells (baculovirus)
T1 sequence (A0A3L7I2I8 1-752 isoform A0A3L7I2I8-2): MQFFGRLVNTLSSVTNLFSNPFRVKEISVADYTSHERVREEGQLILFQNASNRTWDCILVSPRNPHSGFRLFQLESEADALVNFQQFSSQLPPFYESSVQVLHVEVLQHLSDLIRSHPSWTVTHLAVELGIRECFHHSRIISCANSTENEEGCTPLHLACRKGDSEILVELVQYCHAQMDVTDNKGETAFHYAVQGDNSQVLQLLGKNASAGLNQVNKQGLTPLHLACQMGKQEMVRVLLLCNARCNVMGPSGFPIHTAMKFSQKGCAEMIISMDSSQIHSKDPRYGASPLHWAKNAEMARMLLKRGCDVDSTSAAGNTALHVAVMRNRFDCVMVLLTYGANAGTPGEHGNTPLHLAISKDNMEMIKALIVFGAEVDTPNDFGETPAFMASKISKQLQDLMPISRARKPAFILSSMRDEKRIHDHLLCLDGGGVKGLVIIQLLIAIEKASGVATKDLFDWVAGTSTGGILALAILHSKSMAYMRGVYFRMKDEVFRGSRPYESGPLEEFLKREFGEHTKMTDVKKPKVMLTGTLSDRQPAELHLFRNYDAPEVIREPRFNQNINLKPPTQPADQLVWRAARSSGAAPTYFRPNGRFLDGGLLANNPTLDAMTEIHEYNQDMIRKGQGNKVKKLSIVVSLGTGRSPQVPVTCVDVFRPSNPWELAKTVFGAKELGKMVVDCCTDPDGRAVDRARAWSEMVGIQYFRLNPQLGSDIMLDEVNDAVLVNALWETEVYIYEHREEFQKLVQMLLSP
Method: (§1) FIGS. 11A-11D—Purified iPLA2β+/−Ca^2+/CaM was incubated with POPC/BODIPY-PC (95:5 mol %) host vesicles for 2 min at 37° C. with the indicated concentrations of guest oleoyl-CoA. Relative fluorescence was recorded utilizing 495 nm excitation and 515 nm emission wavelengths as described in Experimental Procedures. FIGS. 11E-11H—ESI-MS analysis of phosphatidylcholine molecular species from the reactions described in panels A and D. Spectra were acquired in the positive ion mode with the indicated internal standards as described in Experimental Procedures. FIG. 11I—Purified iPLA2β in the presence or absence of Ca^2+/CaM was incubated with 1-palmitoyl-2-[1-^14C]-oleoyl-sn-glycero-3-phosphocholine (100 μM) host vesicles with or without guest oleoyl-CoA (10 μM) for 3 min at 37° C. Radiolabeled fatty acid was extracted into butanol, resolved by TLC, and quantified by scintillation spectrometry as described in Experimental Procedures.
Phospholipase A2 and Acyl-CoA Hydrolase Enzymatic Assays—Purified recombinant iPLA2β(His)6 (peptide disclosed as SEQ ID NO: 4) (0.1-1 μg) was incubated with radiolabeled phospholipid or acyl-CoA in 25 mM Tris-HCl, pH 7.2 containing 1 mM EGTA (200 μl final volume) for 1-2 mm at 37° C. […] Incorporation of acyl-CoA into the POPC/DOPS vesicles employed was determined as described previously (64). Reactions were terminated by extraction of the released radiolabeled fatty acids into 100 μl butanol, separation of fatty acids from unreacted substrate by thin layer chromatography, and quantitation by scintillation spectroscopy as previous described (65). For tests examining the effects of acyl-CoAs on calmodulin-mediated inhibition of iPLA2β, phospholipase A2 activity was continuously measured utilizing a SPECTRAmax GEMINI XS Dual-Scanning Microplate Spectrofluorometer (Molecular Devices). […] Fluorescence readings were acquired at 20 sec intervals for 5 mm at 37° C. utilizing excitation/emission wavelengths of 495/515 nm, respectively. […]

iPLA2β [2] = target: T1, iPLA2β; assay: ESI-MS analysis of iPLA2β reaction products from POPC/BODIPY-PC vesicles; type: biochemical; conditions: 5 mol % oleoyl-CoA, FIG. 11H
Method: as §1
To confirm that iPLA2β was in fact hydrolyzing BODIPY-PC and that the increase in fluorescence observed was not due to either protein-fluorophore or acylCoA-fluorophore interactions, the reaction substrates and products were extracted into chloroform/methanol in the presence of internal standards and subsequently quantified and analyzed by ESI-MS (83). […]

reversal of calmodulin-mediated inhibition of iPLA2β phospholipase A2 activity (iPLA2β [1]; 5 μM oleoyl-CoA): significant reversal | activity of CaM-inhibited iPLA2β, % of initial activity (iPLA2β [1]; 1 mol % oleoyl-CoA, FIG. 11B): ≈ 40% | effect on inhibition of iPLA2β by Ca2+/CaM (iPLA2β [2]): completely reversed the inhibition
SMILES: CCCCCCCC/C=C\CCCCCCCC(=O)SCCNC(=O)CCNC(=O)[C@H](O)C(C)(C)COP(=O)(O)OP(=O)(O)OC[C@H]1O[C@@H](n2cnc3c(N)ncnc32)[C@H](O)[C@@H]1OP(=O)(O)O [oleoyl-CoA]
effect on CaM mediated inhibition of iPLA2β (iPLA2β [1]; 2.5-5 mol % oleoyl-CoA, FIG. 11C-D): completely eliminated CaM mediated inhibition

Source: patent US8148097B2, “Screening method for identification of compounds with calcium-independent phospholipase A2β (iPLA2β) modulating activity” (Washington University, priority 2005, dated 2012)
